Test results published in patent US4016158A, “Cephalosporin derivatives” (Roussel-UCLAF, priority 1971, dated 1977).
Values after ≈ are worked out from the molar mass of the structure shown.

Tests used:
Escherichia coli 4965 = experiment: bactericidal activity (germs still alive); format: cell-based; parameters: key: +++: all the germs are still alive; +: it remains some colonies; -: it does not remain any germ
Experimental: (§1) The bactericidal activity of product A was ascertained by determining the number of germs still alive after treatment with increasing doses of antibiotic on a liquid media. From the cultures in tubes having 72 hours (previously described method), were placed on agar in Petri dishes a constant sample of the last tube having grown and of the following tubes where no more growth in transillumination is observed. After 48 hours of culture in the Petri dishes, the number of colonies was ascertained.

Escherichia coli 070 = experiment: bactericidal activity (germs still alive); format: cell-based; parameters: key: +++: all the germs are still alive; +: it remains some colonies; -: it does not remain any germ
Experimental: as §1

[1] = system: Diplococcus pneumoniae 735; experiment: bactericidal activity (germs still alive); format: cell-based; parameters: key: +++: all the germs are still alive; +: it remains some colonies; -: it does not remain any germ
Experimental: as §1

[2] = system: Streptococcus hemolyticus 920; experiment: bactericidal activity (germs still alive); format: cell-based; parameters: key: +++: all the germs are still alive; +: it remains some colonies; -: it does not remain any germ
Experimental: as §1

[3] = system: Streptococcus hemolyticus 905; experiment: bactericidal activity (germs still alive); format: cell-based; parameters: key: +++: all the germs are still alive; +: it remains some colonies; -: it does not remain any germ
Experimental: as §1

[4] = system: Staphylococcus aureus 9482; experiment: bactericidal activity (germs still alive); format: cell-based; parameters: key to germs still alive: +++: all the germs are still alive; +: it remains some colonies; -: it does not remain any germ
Experimental: as §1

[5] = system: Staphylococcus aureus 8514; experiment: bactericidal activity (germs still alive); format: cell-based; parameters: key to germs still alive: +++: all the germs are still alive; +: it remains some colonies; -: it does not remain any germ
Experimental: as §1

[6] = system: Staphylococcus aureus 1098; experiment: bactericidal activity (germs still alive); format: cell-based; parameters: key to germs still alive: +++: all the germs are still alive; +: it remains some colonies; -: it does not remain any germ
Experimental: as §1

Shigella sonnei = experiment: bactericidal activity (germs still alive); format: cell-based; parameters: key to germs still alive: +++: all the germs are still alive; +: it remains some colonies; -: it does not remain any germ
Experimental: as §1

[7] = system: Staphylococcus aureus 54146; experiment: bactericidal activity (germs still alive); format: cell-based; parameters: key to germs still alive: +++: all the germs are still alive; +: it remains some colonies; -: it does not remain any germ
Experimental: as §1

oral toxicity in rats = conditions: rat, in vivo
Experimental: The oral toxicity of product A was determined on homogenous groups of 10 male rats weighing 100 to 110 g by administering orally a 0.25% by weight dispersion of product A in an aqueous suspension of carboxymethyl cellulose with an esophagus probe. […] The rats in the test were held in a place in which the air was filtered and sterilized by ultraviolet light and the temperature was held at 22° ± 1° C with a controlled humidity.

Escher. Coli UC 1261 = experiment: MIC, diffusion method in gelose medium at pH 7 (Table I); format: cell-based; conditions: Escherichia coli, UC1261; Escher. Coli UC 1261, pH 7; read-out: minimum concentration of inhibition
Experimental: (§2) The antibiotic activity was determined by the diffusion method in a gelose medium at a pH of 7. The following Table expresses the minimum concentration of inhibition in mcg/ml (CMl) for the products against different microbial strains.

[8] = system: Staph. aureus oxford U.C. 1061 P(+); experiment: as above; format: cell-based; conditions: Staphylococcus aureus, UC1061; Staph. aureus oxford UC 1061, penicillin sensitive, pH 7; read-out: minimum concentration of inhibition
Experimental: as §2

Escher. Coli UC 1020 = experiment: as above; format: cell-based; conditions: Escherichia coli, UC1020; Escher. Coli UC 1020, pH 7; read-out: minimum concentration of inhibition
Experimental: as §2

Bac. Subt. = experiment: as above; format: cell-based; conditions: Bac. Subt., pH 7; read-out: minimum concentration of inhibition
Experimental: as §2

Strept. Fecalis 5432 = experiment: as above; format: cell-based; conditions: Strept. Fecalis 5432, pH 7; read-out: minimum concentration of inhibition
Experimental: as §2

Staph. U.C. 1128 P(-) = experiment: as above; format: cell-based; conditions: Staph. UC 1128, penicillin resistant, read-out: minimum concentration of inhibition
Experimental: as §2

[9] = system: Strept. hemoly. Todd Hewitt; experiment: as above; format: cell-based; conditions: Strept. hemoly. Todd Hewitt, pH 7; read-out: minimum concentration of inhibition
Experimental: as §2

Pseudomonas = experiment: as above; format: cell-based; conditions: read-out: minimum concentration of inhibition
Experimental: as §2

Staphylococcus aureus = experiment: in vivo antibacterial activity, experimental staphylococcia in mice, oral
Experimental: The in vivo antibacterial activity for product A was determined in mice with an experimental staphylococcia. 50 male mice weighing 20 to 23 g were divided into 5 groups of 10 mice each and all were infected interperitoneally with 0.5 ml of a 15 hour culture of Staphylococcus aureus in Pasteur nutritive broth diluted 1/3 with distilled water. Each mouse received product A orally 1 hour and 5 hours after the infection.

[10] = 0.5 mg repeated two times, oral
[11] = 0.5 mg repeated two times, oral, 10 mice
[12] = 1.0 mg repeated two times, oral
[13] = 2.0 mg repeated two times, oral
[14] = 3.0 mg repeated two times, oral

With `CC(C)C1=C(C(=O)O)N2C(=O)[C@@H](NC(=O)[C@H](N)c3ccccc3)[C@H]2SC1` [Example 9, L (+) cis 7-[D (-)-α-aminophenylacetamido]-3-isopropyl-3-cepheme-4-carboxylic acid] the germs still alive (Escherichia coli 4965; 30 μg/ml) was “+++”, the germs still alive (Escherichia coli 4965; 40 μg/ml) was “-” and the germs still alive (Escherichia coli 070; 30 μg/ml) was “+++”. The germs still alive (Escherichia coli 070; 40 μg/ml) was “-”, the germs still alive ([1]; 1 μg/ml) was “+++” and the germs still alive ([1]; 2 μg/ml) was “-”. For the same molecule, the germs still alive ([1]; 3 μg/ml) was “-”, the germs still alive ([2]; 2 μg/ml) was “+++” and the germs still alive ([2]; 3 μg/ml) was “-”. For the same molecule, the germs still alive ([3]; 1 μg/ml) was “+++”, the germs still alive ([3]; 2 μg/ml) was “-” and the germs still alive ([3]; 3 μg/ml) was “-”. The germs still alive ([4]; 1 μg/ml) was “+++”, the number of colonies ([4]; 2 μg/ml) was 1 colonie and the number of colonies ([4]; 3 μg/ml) was 2 colonies. For the same molecule, the germs still alive ([4]; 5 μg/ml) was “-”, the germs still alive ([5]; 1 μg/ml) was “+++” and the germs still alive ([5]; 2 μg/ml) was “+++”. For the same molecule, the number of colonies ([5]; 3 μg/ml) was “a few”, the germs still alive ([5]; 5 μg/ml) was “-” and the germs still alive ([6]; 1 μg/ml) was “+++”. For the same molecule, the germs still alive ([6]; 2 μg/ml) was “+++”, the number of colonies ([6]; 3 μg/ml) was 1 colonies and the germs still alive ([6]; 5 μg/ml) was “-”. The germs still alive (Shigella sonnei; 20 μg/ml) was “+++”, the germs still alive (Shigella sonnei; 30 μg/ml) was “+” and the number of colonies (Shigella sonnei; 40 μg/ml) was 9 colonies. For the same molecule, the germs still alive (Shigella sonnei; 60 μg/ml) was “-”, the germs still alive ([7]; 1 μg/ml) was “+++” and the germs still alive ([7]; 2 μg/ml) was “+”. For the same molecule, the number of colonies ([7]; 3 μg/ml) was 3 colonies, the germs still alive ([7]; 5 μg/ml) was “-” and the LD50 (oral toxicity in rats) was > 800 mg/kg. For the same molecule, the abnormal symptoms (oral toxicity in rats; 800 mg/kg) was “none of the rats presented any abnormal symptoms”, the MIC (Escher. Coli UC 1261) was 40 to 100 µg/mL (≈ 107 to 266 µM) and the MIC [8] was 0.4 µg/mL (≈ 1.07 µM). The MIC (Escher. Coli UC 1020) was 100 µg/mL (≈ 266 µM), the MIC (Bac. Subt.) was 0.2 µg/mL (≈ 0.533 µM) and the MIC (Strept. Fecalis 5432) was 20 µg/mL (≈ 53.3 µM). The MIC (Staph. U.C. 1128 P(-)) was 2 µg/mL (≈ 5.33 µM), the MIC [9] was 10 µg/mL (≈ 26.6 µM) and the MIC (Pseudomonas) was > 100 µg/mL. The “Mice living on 8th day” value (Staphylococcus aureus; [10]) was 7/10, the “Mice living on 8th day (%)” value (Staphylococcus aureus; [10]) was 70% and the “Mortality at 10h” value (Staphylococcus aureus; [11]) was 1. The “Mortality at 22h” value (Staphylococcus aureus; [11]) was 1, the “Mortality at 70h” value (Staphylococcus aureus; [11]) was 1 and the “Mice living on 8th day” value (Staphylococcus aureus; [12]) was 9/10. For the same molecule, the “Mice living on 8th day (%)” value (Staphylococcus aureus; [12]) was 90%, the “Mortality at 70h” value (Staphylococcus aureus; 1.0 mg repeated two times, oral, 10 mice) was 1 and the “Mice living on 8th day” value (Staphylococcus aureus; [13]) was 10/10. For the same molecule, the “Mice living on 8th day (%)” value (Staphylococcus aureus; [13]) was 100%, the “Mice living on 8th day” value (Staphylococcus aureus; [14]) was 10/10 and the “Mice living on 8th day (%)” value (Staphylococcus aureus; [14]) was 100%. For the same molecule, the antibacterial activity (Staphylococcus aureus; administered orally, 1 hour and 5 hours after infection) was “good antibacterial activity”.
